Patent publication US9951064B2, “Azaindazole compounds as inhibitors of T790M containing EGFR mutants” (Genentech, Inc., priority 2013, dated 2018)

What was measured:
[1] = biological target: T1, EGFR del746-750 T790M (Homo sapiens, UniProt P00533, DEL746-750/T790M); assay: EGFR del746-750 T790M biochemical assay (Caliper mobility shift); details: 5 μM ATP; apparent Ki (Morrison fit) converted by Cheng-Prusoff, Km of ATP 2.1 μM; read-out: EGFR(T790M/d746-750) Ki
T1 construct: purchased Carna Biosciences 08-528
How it was run: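 Caliper mobility-shift read-out, with product electrophoretically resolved from substrate and measured. Reactions were quenched with 80 mM EDTA after 30 min at 22 °C.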

[2] = tested on: H1975 (EGFR T790M/L858R) cell proliferation; assay: H1975 proliferation assay (Cell Titer-Glo); format: cell-based; details: Homo sapiens, NCI-H1975, 72 h, NCI-H1975 cells, 72 hour incubation, read-out: H1975 antiproliferative EC50
Procedure: H1975 Proliferation Assays
All cell culture reagents were purchased from Invitrogen/Gibco. Cells are cultured at 37° C. at 5% CO2 and split as recommended by ATCC.

[3] = biological target: T2, EGFR T790M L858R (Homo sapiens, UniProt P00533, L858R/T790M); assay: EGFR T790M L858R biochemical assay (Caliper mobility shift); details: 5 μM ATP; apparent Ki (Morrison fit) converted by Cheng-Prusoff, Km of ATP 1.3 μM
T2 construct: purchased Life Technologies PV4879
How it was run: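 Caliper mobility-shift read-out, electrophoretic separation of substrate from product, after a 30-minute kinase reaction at 22 °C. EDTA at 80 mM terminates each reaction.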

[4] = biological target: T3, phosphor-EGFR in H1975(L585R/T790M) mutant EGFR expressing cells (Homo sapiens, UniProt P00533, L858R/T790M); assay: H1975 pEGFR MSD cellular assay; format: cell-based; details: NCI-H1975 cells, serum starved, 1 hour compound incubation, pEGFR Tyr1068 MSD; read-out: HI975 pEGFR EC50
T3 construct: host or cells: NCI-H1975
How it was run: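 Phospho-EGFR read by MSD electrochemiluminescence: capture with anti-pEGFR antibody (overnight, 4° C), detection with SULFO-TAG anti-total EGFR (1 hour, room temperature). Before lysis, H1975 cells starved of serum overnight got compound for 1 hour at 37° C, 0.5% DMSO final. EC50 via four-parameter logistic regression of percent inhibition.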

T1 sequence (P00533 with tags, fused parts or gaps DEL746-750/T790M limits assumed): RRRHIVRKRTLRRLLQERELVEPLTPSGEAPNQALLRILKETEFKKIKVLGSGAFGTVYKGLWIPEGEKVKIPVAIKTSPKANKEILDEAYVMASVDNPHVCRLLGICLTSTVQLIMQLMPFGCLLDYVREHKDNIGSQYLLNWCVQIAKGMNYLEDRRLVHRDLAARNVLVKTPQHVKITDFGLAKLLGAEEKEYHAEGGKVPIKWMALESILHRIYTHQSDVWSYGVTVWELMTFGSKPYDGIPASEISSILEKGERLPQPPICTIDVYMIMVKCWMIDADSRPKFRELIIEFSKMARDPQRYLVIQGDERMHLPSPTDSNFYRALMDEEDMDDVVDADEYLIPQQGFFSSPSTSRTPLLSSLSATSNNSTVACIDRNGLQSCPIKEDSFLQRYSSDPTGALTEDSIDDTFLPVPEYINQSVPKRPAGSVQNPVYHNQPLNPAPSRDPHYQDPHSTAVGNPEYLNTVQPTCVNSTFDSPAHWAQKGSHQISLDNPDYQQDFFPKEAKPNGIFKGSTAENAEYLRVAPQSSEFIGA
T3 sequence (P00533 25-1210 T790M/L858R): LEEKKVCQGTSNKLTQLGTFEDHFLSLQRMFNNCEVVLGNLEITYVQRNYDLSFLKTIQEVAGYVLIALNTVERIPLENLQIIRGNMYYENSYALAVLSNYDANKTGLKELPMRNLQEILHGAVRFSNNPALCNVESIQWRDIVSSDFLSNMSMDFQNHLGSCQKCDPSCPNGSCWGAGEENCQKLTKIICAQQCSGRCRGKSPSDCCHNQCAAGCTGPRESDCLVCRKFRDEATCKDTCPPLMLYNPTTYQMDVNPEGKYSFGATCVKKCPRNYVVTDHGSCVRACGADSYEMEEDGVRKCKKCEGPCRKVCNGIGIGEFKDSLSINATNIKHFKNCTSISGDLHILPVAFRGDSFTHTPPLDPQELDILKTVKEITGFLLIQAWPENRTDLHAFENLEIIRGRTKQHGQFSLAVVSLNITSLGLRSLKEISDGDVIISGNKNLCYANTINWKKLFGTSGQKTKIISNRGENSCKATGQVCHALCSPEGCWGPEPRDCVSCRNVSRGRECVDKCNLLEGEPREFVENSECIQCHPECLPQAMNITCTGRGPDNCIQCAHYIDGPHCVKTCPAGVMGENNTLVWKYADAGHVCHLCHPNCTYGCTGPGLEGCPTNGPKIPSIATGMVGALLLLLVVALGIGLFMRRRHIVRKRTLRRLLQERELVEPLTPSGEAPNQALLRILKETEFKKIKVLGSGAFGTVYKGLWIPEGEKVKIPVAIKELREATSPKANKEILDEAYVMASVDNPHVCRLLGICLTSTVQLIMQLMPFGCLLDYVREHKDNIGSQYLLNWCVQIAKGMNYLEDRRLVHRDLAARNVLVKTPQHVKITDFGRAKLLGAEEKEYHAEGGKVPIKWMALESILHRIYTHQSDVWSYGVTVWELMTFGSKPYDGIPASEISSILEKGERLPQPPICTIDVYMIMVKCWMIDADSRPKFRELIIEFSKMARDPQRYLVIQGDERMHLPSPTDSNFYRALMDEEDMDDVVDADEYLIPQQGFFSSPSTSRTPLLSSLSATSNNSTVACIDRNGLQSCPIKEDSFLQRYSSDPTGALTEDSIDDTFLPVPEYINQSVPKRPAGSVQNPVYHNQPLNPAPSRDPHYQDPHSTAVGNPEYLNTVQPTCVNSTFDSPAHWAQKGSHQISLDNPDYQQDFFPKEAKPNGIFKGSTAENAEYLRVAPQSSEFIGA
T2 sequence (P00533 25-1210 T790M/L858R): as above

## CC(n1nc(N2CC[C@@H](O)C2)c2cnc(Nc3ccnc(N4CC[C@](C)(O)[C@H](F)C4)n3)cc21)C(F)(F)F (relative stereo) [Example 79, (3RS,4SR)-3-Fluoro-1-(4-(3-((R)-3-hydroxypyrrolidin-1-yl)-1-((S*)-1,1,1-trifluoropropan-2-yl)-1H-pyrazolo[4,3-c]pyridin-6-ylamino)pyrimidin-2-yl)-4-methylpiperidin-4-ol]
[1]
  Ki: 5.9 nM
[2]
  EC50: 906 nM
[3]
  Ki: 3.3 nM
[4]
  EC50: 165 nM

## CC(C)n1nc(N2CC(C(C)(C)O)C2)c2cnc(Nc3ccnc(-c4cnn(S(=O)(=O)C5CC5)c4)n3)cc21 [Example 149, 2-(1-(6-(2-(1-(Cyclopropylsulfonyl)-1H-pyrazol-4-yl)pyrimidin-4-ylamino)-1-isopropyl-1H-pyrazolo[4,3-c]pyridin-3-yl)azetidin-3-yl)propan-2-ol]
[1]
  Ki: 1.2 nM
[2]
  EC50: 423 nM
[3]
  Ki: 2.1 nM
[4]
  EC50: 51.9 nM

## CCC(C)n1nc(N2CC[C@@H](O)C2)c2cnc(Nc3ccnc(N4CCC(S(C)(=O)=O)CC4)n3)cc21 (stereo partly drawn) [Example 206, (3R)-1-(1-(sec-Butyl)-6-((2-(4-(methylsulfonyl)piperidin-1-yl)pyrimidin-4-yl)amino)-1H-pyrazolo[4,3-c]pyridin-3-yl)pyrrolidin-3-ol]
[1]
  Ki: 8.9 nM
[2]
  EC50: 1110 nM
[3]
  Ki: 1.9 nM
[4]
  EC50: 298 nM

## CCC(C)n1nc(N2CC3(COC3)C2)c2cnc(Nc3ccnc(N4CCC(C)(O)CC4)n3)cc21 (stereo not shown) [Example 202, 1-(4-((1-(sec-Butyl)-3-(2-oxa-6-azaspiro[3.3]heptan-6-yl)-1H-pyrazolo[4,3-c]pyridin-6-yl)amino)pyrimidin-2-yl)-4-methylpiperidin-4-ol]
[1]
  Ki: 4.8 nM
[2]
  EC50: 881 nM
[3]
  Ki: 2.8 nM
[4]
  EC50: 141 nM

## CC1CN(c2nn(C(C)C)c3cc(Nc4ccnc(-c5cnn(S(=O)(=O)C6CC6)c5)n4)ncc23)C(=O)N1 (stereo not shown) [Example 108, 1-(6-(2-(1-(Cyclopropylsulfonyl)-1H-pyrazol-4-yl)pyrimidin-4-ylamino)-1-isopropyl-1H-pyrazolo[4,3-c]pyridin-3-yl)-4-methylimidazolidin-2-one]
[1]
  Ki: 1.7 nM
[2]
  EC50: 377 nM
[3]
  Ki: 1.9 nM
[4]
  EC50: 113 nM

## CCS(=O)(=O)n1cc(-c2nccc(Nc3cc4c(cn3)c(N3CC(C(=O)N(C)C)C3)nn4C(C)C)n2)cn1 [Example 17, 1-(6-(2-(1-(Ethylsulfonyl)-1H-pyrazol-4-yl)pyrimidin-4-ylamino)-1-isopropyl-1H-pyrazolo[4,3-c]pyridin-3-yl)-N, N-dimethylazetidine-3-carboxamide]
[1]
  Ki: 0.8 nM
[2]
  EC50: 236 nM
[3]
  Ki: 0.7 nM
[4]
  EC50: 19.2 nM

## CC(C)n1nc(NCCC2OCC(N)CO2)c2cnc(Nc3ccnc(N4CCC(C)(O)CC4)n3)cc21 (stereo not shown) [Example 139, 1-(4-(3-(2-(5-Amino-1,3-dioxan-2-yl)ethylamino)-1-isopropyl-1H-pyrazol[4,3-c]pyridin-6-ylamino)pyrimidin-2-yl)-4-methylpiperidin-4-ol]
[1]
  Ki: 18.3 nM
[2]
  EC50: > 10000 nM
[3]
  Ki: 7.1 nM
[4]
  EC50: 6070 nM

## COC1CCN(c2nccc(Nc3cc4c(cn3)c(N3CC5(COC5)C3)nn4C(C)C)n2)CC1F (racemic) [Example 23, (±)-2-(cis-3-Fluoro-4-methoxypiperidin-1-yl)pyrimidin-4-yl]-[1-isopropyl-3-(2-oxa-6-azaspiro[3.3]hept-6-yl)-1H-pyrazolo[4,3-c]pyridin-6-yl]amine]
[1]
  Ki: 3.9 nM
[2]
  EC50: 248 nM
[3]
  Ki: 1.1 nM
[4]
  EC50: 23.1 nM

## C[C@@H](n1nc(N2CC[C@@H](O)C2)c2cnc(Nc3ccnc(N4CC[C@H](O)[C@H](F)C4)n3)cc21)C(F)(F)F (relative stereo) [Example 142, (±)-cis-3-Fluoro-1-(4-(3-((R)-3-hydroxypyrrolidin-1-yl)-1-((R*)-1,1,1-trifluoropropan-2-yl)-1H-pyrazolo[4,3-c]pyridin-6-ylamino)pyrimidin-2-yl)piperidin-4-ol]
[1]
  Ki: 3.1 nM
[2]
  EC50: 1280 nM
[3]
  Ki: 1.6 nM
[4]
  EC50: 110 nM

## CO[C@H]1CCN(c2nccc(Nc3cc4c(cn3)c(N3CC5(COC5)C3)nn4C(C)C)n2)C[C@H]1F (racemic) [Example 103, [2-((cis)-(±)-3-Fluoro-4-methoxypiperidin-1-yl)pyrimidin-4-yl]-[1-isopropyl-3-(2-oxa-6-azaspiro[3.3]hept-6-yl)-1H-pyrazolo[4,3-c]pyridin-6-yl]amine]
[1]
  Ki: 3.9 nM
[2]
  EC50: 248 nM
[3]
  Ki: 1.1 nM
[4]
  EC50: 23.1 nM

## CNC(=O)C1CN(c2nn(C(C)C)c3cc(Nc4ccnc(-c5cnn(S(=O)(=O)C6CC6)c5)n4)ncc23)C1 [Example 161, 1-(6-(2-(1-(Cyclopropylsulfonyl)-1H-pyrazol-4-yl)pyrimidin-4-ylamino)-1-isopropyl-1H-pyrazolo[4,3-c]pyridin-3-yl)-N-methylazetidine-3-carboxamide]
[1]
  Ki: 0.6 nM
[2]
  EC50: 650 nM
[3]
  Ki: 0.7 nM
[4]
  EC50: 54.3 nM

## CC(C)n1nc(N2CC[C@@H](N)C2=O)c2cnc(Nc3ccnc(N4CCC(C)(O)CC4)n3)cc21 [Example 158, (R)-3-Amino-1-(6-(2-(4-hydroxy-4-methylpiperidin-1-yl)pyrimidin-4-ylamino)-1-isopropyl-1H-pyrazolo[4,3-c]pyridin-3-yl)pyrrolidin-2-one]
[1]
  Ki: 50.9 nM
[2]
  EC50: 8120 nM
[3]
  Ki: 18.5 nM
[4]
  EC50: 1300 nM

## CCC(C)n1nc(N2CC3(COC3)C2)c2cnc(Nc3ccnc(OCC(C)(C)S(C)(=O)=O)n3)cc21 (racemic) [Example 97, [1-(sec-Butyl)-3-(2-oxa-6-azaspiro[3.3]hept-6-yl)-1H-pyrazolo[4,3-c]pyridin-6-yl]-[2-(2-methanesulfonyl-2-methylpropoxy)pyrimidin-4-yl]amine]
[1]
  Ki: 5.2 nM
[2]
  EC50: 1130 nM
[3]
  Ki: 3.2 nM
[4]
  EC50: 233 nM

## CCC(C)n1nc(N2CC[C@@H](O)C2)c2cnc(Nc3ccnc(N4CC[C@H](O)[C@H](F)C4)n3)cc21 (stereo partly drawn) [Example 196, (3R,4S)-1-(4-((1-(sec-Butyl)-3-((R)-3-hydroxypyrrolidin-1-yl)-1H-pyrazolo[4,3-c]pyridin-6-yl)amino)pyrimidin-2-yl)-3-fluoropiperidin-4-ol]
[1]
  Ki: 1.1 nM
[2]
  EC50: 263 nM
[3]
  Ki: 0.9 nM
[4]
  EC50: 12.5 nM

## CCC(C)n1nc(N2CCNC2=O)c2cnc(Nc3ccnc(N4CC[C@H](OC)[C@H](F)C4)n3)cc21 (mixture of isomers) [Example 98, 1-{1-(sec-Butyl)-6-[2-((3R,4S)-3-fluoro-4-methoxypiperidin-1-yl)pyrimidin-4-ylamino]-1H-pyrazolo[4,3-c]pyridin-3-yl}imidazolidin-2-one]
[1]
  Ki: 1.8 nM
[2]
  EC50: 256 nM
[3]
  Ki: 1 nM
[4]
  EC50: 39.5 nM

## CC(C)n1nc(N2CCC(C(=O)N(C)C)C2)c2cnc(Nc3ccnc(-c4cnn(S(=O)(=O)C5CC5)c4)n3)cc21 (stereo not shown) [Example 156, 1-(6-(2-(1-(Cyclopropylsulfonyl)-1H-pyrazol-4-yl)pyrimidin-4-ylamino)-1-isopropyl-1H-pyrazolo[4,3-c]pyridin-3-yl)N,N-dimethylpyrrolidine-3-carboxamide]
[1]
  Ki: 0.8 nM
[2]
  EC50: 163 nM
[3]
  Ki: 1.1 nM
[4]
  EC50: 39.2 nM

## CC[C@@H](C)n1nc(N2CC3(COC3)C2)c2cnc(Nc3ccnc(N4CC[C@@](C)(O)[C@@H](F)C4)n3)cc21 (single isomer, unassigned) [Example 68, (3R*,4S*)-1-{4-[1-((R)-sec-Butyl)-3-(2-oxa-6-azaspiro[3.3]hept-6-yl)-1H-pyrazolo[4,3-c]pyridin-6-ylamino]pyrimidin-2-yl}-3-fluoro-4-methylpiperidin-4-ol]
[1]
  Ki: 10.2 nM
[2]
  EC50: 851 nM
[3]
  Ki: 3.2 nM
[4]
  EC50: 157 nM

## CCC(C)n1nc(N2CCNC2=O)c2cnc(Nc3ccnc(-c4cnn(S(=O)(=O)C5CC5)c4)n3)cc21 (stereo not shown) [Example 25, 1-(1-(sec-Butyl)-6-((2-(1-(cyclopropylsulfonyl)-1H-pyrazol-4-yl)pyrimidin-4-yl)amino)-1H-pyrazolo[4,3-c]pyridin-3-yl)imidazolidin-2-one]
[1]
  Ki: 2.5 nM
[2]
  EC50: 138 nM
[3]
  Ki: 1 nM
[4]
  EC50: 38.3 nM

## CC(C)n1nc(N2CCO[C@@H](CO)C2)c2cnc(Nc3ccnc(N4CCC(O)C(F)C4)n3)cc21 (mixture of isomers) [Example 75, cis-3-Fluoro-1-(4-(3-((R)-2-(hydroxymethyl)morpholino)-1-isopropyl-1H-pyrazolo[4,3-c]pyridin-6-ylamino)pyrimidin-2-yl)piperidin-4-ol]
[1]
  Ki: 10.3 nM
[2]
  EC50: 7820 nM
[3]
  Ki: 4.1 nM
[4]
  EC50: 1330 nM
